The values that follow come from patent US20090048449A1, “RIMONABANT MONOHYDRATE, PROCESS FOR THE PREPARATION THEREOF AND PHARMACEUTICAL COMPOSITIONS CONTAINING SAME” (SANOFI-AVENTIS, priority 2006, published 2009).

Bounds are passed on as bounds.

Common to all, as to type: physicochemical
The nature of series [1]: Flowability of the crystal forms by flowability / compressibility / Carr index. As to conditions: for Carr index: tap and bulk densities in graduated cylinder, data at 10 and 1250 taps, <=20% good powder flow, >21% passable to very difficult. On the procedure:
The flowability of the rimonabant monohydrate crystal form was measured and compared to that of the rimonabant crystal form II. The flowability of the crystal forms is measured by the flowability index or compressibility index or Carr index as described in R. L. Carr: Evaluation of flow properties of solids, Chem. Eng., 1965, 163-168 and also in the European Pharmacopeia.
The flowability index is calculated according to the following equation: IC=100×(ρt−ρb)/ρt where ρt is the tap density and ρb is the bulk density. This index is considered to be good if it is less than 20.
The densities are determined experimentally by packing the product into a graduated cylinder according to the procedure described in the European Pharmacopeia. The densities are determined after 10, 500, 1250 and 2500 taps. The Carr index is determined from the data measured at 10 and 1250 taps.
A Carr index less than or equal to 20% is considered as corresponding to a good powder flow, whereas a Carr index greater than 21% is considered as corresponding to a passable, even difficult or very difficult, powder flow.

Series [2] in a line: Filterability: specific resistance of the filter cake. The note with it: filtering crystals from the solution in which they were formed; comparison with form I and form II. An excerpt: The improvement in filterability allows the filtration step to be shortened and leads to a significant improvement in the texture of the filter cake which is characterized by a low moisture content of the powder before drying and a low degree of residual solvent before drying. The resulting powder after drying has improved physical properties, especially in terms of flowability and therefore of handleability.

The nature of series [3]: Water vapor sorption/desorption at 25° C. (SGA100 analyzer). As to conditions: sorption cycle 0-100% RH at 25° C. after degassing the monohydrate at 80° C. for 3 hours (water of hydration lost). As for the experimental part: Analysis of water vapor sorption/desorption measurements was carried out on the rimonabant monohydrate crystal form on a SGA100 analyzer sold by VTI (USA). It was operated between 0% and 100% relative humidity at 25° C. after degassing the monohydrate form at 80° C. for 3 hours. The rimonabant monohydrate loses its water of hydration molecule during drying at 80° C. During the water vapor sorption cycle, the conversion of the rimonabant into rimonabant monohydrate occurs starting from 40% relative humidity. The sorption/desorption isotherm is represented in FIG. 4.

As for `Cc1c(C(=O)NN2CCCCC2)nn(-c2ccc(Cl)cc2Cl)c1-c1ccc(Cl)cc1` [rimonabant crystal form I, N-piperidino-5-(4-chlorophenyl)-1-(2,4-dichlorophenyl)-4-methylpyrazole-3-carboxamide], the “Flowability corresponding to the Carr index (in words)” value in series [1] (Carr index measured, only class in words printed) is listed as “very difficult flowability”.
For `Cc1c(C(=O)NN2CCCCC2)nn(-c2ccc(Cl)cc2Cl)c1-c1ccc(Cl)cc1` [rimonabant crystal form II, N-piperidino-5-(4-chlorophenyl)-1-(2,4-dichlorophenyl)-4-methylpyrazole-3-carboxamide], the Carr index entry in series [1] is listed as “around 38%”.
As for `Cc1c(C(=O)NN2CCCCC2)nn(-c2ccc(Cl)cc2Cl)c1-c1ccc(Cl)cc1` [rimonabant monohydrate crystal form], the Carr index in series [1] is 20%. For the same compound, in series [2], the “Specific resistance of the filter cake” value is “less than that measured for rimonabant crystal form I and crystal form II”.
Consider `Cc1c(C(=O)NN2CCCCC2)nn(-c2ccc(Cl)cc2Cl)c1-c1ccc(Cl)cc1` [rimonabant, N-piperidino-5-(4-chlorophenyl)-1-(2,4-dichlorophenyl)-4-methylpyrazole-3-carboxamide], for which, in series [3], the “Relative humidity from which conversion of rimonabant into rimonabant monohydrate occurs” value is given as ≥ 40 % relative humidity.
